Here are results for 17 molecules from BindingDB's records for doi:10.1016/j.ejmech.2015.08.002 (Ochanomizu University, 2015).

What is called IC50 is the concentration needed to halve the response being measured.

Androgen receptor (Mus musculus), sequence (P19091 whole entry, looked up): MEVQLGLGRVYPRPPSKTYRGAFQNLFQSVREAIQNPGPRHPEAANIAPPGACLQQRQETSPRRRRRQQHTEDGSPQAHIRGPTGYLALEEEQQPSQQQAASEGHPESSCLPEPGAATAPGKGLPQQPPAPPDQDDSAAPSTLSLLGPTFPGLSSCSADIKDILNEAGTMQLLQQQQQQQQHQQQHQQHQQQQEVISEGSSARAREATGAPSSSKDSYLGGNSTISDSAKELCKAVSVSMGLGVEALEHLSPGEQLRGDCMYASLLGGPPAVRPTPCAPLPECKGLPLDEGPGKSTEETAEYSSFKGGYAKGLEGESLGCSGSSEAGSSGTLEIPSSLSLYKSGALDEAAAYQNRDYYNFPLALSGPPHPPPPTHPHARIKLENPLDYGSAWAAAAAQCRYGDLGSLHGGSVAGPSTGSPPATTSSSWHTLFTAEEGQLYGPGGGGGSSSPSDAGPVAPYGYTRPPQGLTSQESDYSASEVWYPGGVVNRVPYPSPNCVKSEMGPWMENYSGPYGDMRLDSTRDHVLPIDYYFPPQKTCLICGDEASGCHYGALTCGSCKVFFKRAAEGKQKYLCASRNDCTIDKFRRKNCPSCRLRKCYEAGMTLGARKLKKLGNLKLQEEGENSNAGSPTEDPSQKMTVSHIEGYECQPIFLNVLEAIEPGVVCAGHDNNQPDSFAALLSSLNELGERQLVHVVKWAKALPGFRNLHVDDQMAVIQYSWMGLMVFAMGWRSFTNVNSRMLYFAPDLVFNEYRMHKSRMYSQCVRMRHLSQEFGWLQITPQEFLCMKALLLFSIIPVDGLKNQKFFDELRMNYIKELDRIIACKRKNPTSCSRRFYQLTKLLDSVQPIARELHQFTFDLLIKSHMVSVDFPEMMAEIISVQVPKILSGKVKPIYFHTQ

This test concerns the target Androgen receptor (Mus musculus) (UniProt P19091). Nature of the test: Antagonist activity at wild type AR expressed in mouse SC-3 cells assessed as inhibition of 1 nM DHT-induced cell proliferation after 3 days by WST-8 assay. A general note: Tetrazolium dyes change colour on reduction, which living cells bring about.
As for `COc1ccccc1Cc1n[nH]c(=O)c2ccccc12`, the IC50 stood at 9.59 µM.
For `Cc1cccc(C)c1Cc1n[nH]c(=O)c2ccccc12`, the IC50 worked out at 1.38 µM.
In the case of `O=c1[nH]nc(Cc2ccccc2F)c2ccccc12` it was 10.5 µM.
The value for `O=c1[nH]nc(Cc2c(Cl)ccc(Cl)c2Cl)c2ccccc12` was 0.92 µM; that for `O=c1[nH]nc(Cc2c(F)cccc2F)c2ccccc12` was 3.76 µM.
Consider `Cc1ccccc1Cc1n[nH]c(=O)c2ccccc12`, for which the IC50 amounted to 9.54 µM.
In the case of `O=C(Nc1ccccc1Cc1n[nH]c(=O)c2ccccc12)C(F)(F)F` it was 1.01 µM; in that of `O=c1[nH]nc(Cc2c(Cl)cccc2Cl)c2ccccc12`, 0.18 µM; in that of `O=c1[nH]nc(Cc2ccccc2Cl)c2ccccc12` [4-(2-chlorobenzyl)phthalazin-1(2H)-one], 1.26 µM.
`CNc1ccccc1Cc1n[nH]c(=O)c2ccccc12`: the IC50 turned out to be 9.02 µM.
The value for `O=c1[nH]nc(Cc2ccccc2)c2ccccc12` was 5.37 µM.
As for `O=c1[nH]nc(Cc2ccccc2C(F)(F)F)c2ccccc12`, the IC50 is 3.67 µM.
In the case of `CCNc1ccccc1Cc1n[nH]c(=O)c2ccccc12` it was 3.71 µM; in that of `Nc1ccccc1Cc1n[nH]c(=O)c2ccccc12`, 0.22 µM; in that of `CN(C)c1ccccc1Cc1n[nH]c(=O)c2ccccc12`, 1.95 µM.
The value for `O=c1[nH]nc(Cc2ccccc2[N+](=O)[O-])c2ccccc12` was 0.53 µM; that for `CCN(CC)c1ccccc1Cc1n[nH]c(=O)c2ccccc12` was 1.66 µM.
